Measurements as given in ChEMBL document CHEMBL5104143, “Synthesis and evaluation of hydrazinyl-containing pyrrolo[2,3-d]pyrimidine series as potent, selective and oral JAK1 inhibitors for the treatment of rheumatoid arthritis” (Bioorg Med Chem Lett, 2022).

Key:
[1] = molecular target: Tyrosine-protein kinase JAK1 (Homo sapiens, UniProt P23458); assay: Inhibition of JAK1 (unknown origin)
[2] = molecular target: Tyrosine-protein kinase JAK2 (Homo sapiens, UniProt O60674)
Description: Inhibition of JAK2 (unknown origin)

[3] = molecular target: T1, Tyrosine-protein kinase JAK3 (Homo sapiens, UniProt P52333)
T1 sequence (P52333 whole entry): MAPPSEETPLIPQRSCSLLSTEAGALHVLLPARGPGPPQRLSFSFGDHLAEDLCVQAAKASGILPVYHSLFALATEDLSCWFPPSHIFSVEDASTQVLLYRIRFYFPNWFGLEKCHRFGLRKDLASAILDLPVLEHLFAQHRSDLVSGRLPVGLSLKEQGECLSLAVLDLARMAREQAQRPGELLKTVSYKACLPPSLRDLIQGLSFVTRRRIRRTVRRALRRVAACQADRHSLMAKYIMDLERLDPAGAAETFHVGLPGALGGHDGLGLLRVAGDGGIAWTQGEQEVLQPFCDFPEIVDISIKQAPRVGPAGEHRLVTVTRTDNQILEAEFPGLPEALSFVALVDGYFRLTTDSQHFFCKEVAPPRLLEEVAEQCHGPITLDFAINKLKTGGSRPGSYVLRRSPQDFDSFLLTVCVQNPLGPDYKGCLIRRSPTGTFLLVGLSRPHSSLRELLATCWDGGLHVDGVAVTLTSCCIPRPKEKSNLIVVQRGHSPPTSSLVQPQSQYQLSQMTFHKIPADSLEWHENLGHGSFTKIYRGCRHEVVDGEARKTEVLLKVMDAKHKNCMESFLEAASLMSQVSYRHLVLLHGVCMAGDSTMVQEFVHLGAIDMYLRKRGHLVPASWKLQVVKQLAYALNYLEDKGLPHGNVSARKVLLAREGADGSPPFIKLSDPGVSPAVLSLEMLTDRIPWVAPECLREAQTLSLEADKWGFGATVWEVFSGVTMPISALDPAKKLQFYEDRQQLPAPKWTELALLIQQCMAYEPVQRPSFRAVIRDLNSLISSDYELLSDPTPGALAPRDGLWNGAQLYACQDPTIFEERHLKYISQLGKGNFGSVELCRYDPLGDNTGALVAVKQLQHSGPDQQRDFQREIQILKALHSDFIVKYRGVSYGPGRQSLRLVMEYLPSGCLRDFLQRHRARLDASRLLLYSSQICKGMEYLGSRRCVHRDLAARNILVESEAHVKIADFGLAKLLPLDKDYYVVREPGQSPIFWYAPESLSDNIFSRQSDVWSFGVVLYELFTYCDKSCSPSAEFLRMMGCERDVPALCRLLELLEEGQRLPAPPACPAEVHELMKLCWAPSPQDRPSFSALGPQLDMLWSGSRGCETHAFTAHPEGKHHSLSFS
Description: Inhibition of JAK3 (unknown origin)

Sequence of Tyrosine-protein kinase JAK1 (P23458 whole entry): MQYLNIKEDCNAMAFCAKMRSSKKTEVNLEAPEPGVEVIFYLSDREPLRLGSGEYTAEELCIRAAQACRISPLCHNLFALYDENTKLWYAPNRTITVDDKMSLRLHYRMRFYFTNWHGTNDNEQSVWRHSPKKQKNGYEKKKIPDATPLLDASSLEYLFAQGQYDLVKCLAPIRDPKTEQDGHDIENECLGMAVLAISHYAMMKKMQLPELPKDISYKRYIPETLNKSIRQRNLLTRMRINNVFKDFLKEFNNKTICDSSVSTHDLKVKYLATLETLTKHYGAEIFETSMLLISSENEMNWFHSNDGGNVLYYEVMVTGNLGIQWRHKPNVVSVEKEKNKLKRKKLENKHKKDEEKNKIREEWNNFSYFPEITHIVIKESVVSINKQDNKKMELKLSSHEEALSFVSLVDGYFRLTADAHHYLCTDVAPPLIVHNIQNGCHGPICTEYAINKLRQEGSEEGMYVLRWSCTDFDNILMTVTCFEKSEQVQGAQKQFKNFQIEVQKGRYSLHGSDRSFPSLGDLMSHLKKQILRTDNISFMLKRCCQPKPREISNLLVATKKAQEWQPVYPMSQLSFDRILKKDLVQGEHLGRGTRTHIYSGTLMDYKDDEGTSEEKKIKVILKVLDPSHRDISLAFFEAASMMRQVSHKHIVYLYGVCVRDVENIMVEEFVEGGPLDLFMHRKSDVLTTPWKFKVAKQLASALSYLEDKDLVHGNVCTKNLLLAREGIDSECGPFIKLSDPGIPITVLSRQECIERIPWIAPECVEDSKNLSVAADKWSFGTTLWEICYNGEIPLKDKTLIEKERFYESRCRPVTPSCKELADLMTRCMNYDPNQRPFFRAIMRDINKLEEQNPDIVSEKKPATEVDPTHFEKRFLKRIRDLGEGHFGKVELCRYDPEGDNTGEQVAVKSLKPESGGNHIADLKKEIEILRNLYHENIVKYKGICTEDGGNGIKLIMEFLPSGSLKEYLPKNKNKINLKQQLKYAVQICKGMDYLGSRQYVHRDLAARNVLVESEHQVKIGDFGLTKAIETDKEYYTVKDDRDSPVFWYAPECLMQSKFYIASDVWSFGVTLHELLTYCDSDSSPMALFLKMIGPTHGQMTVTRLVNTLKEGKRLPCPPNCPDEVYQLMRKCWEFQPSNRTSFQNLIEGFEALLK
Sequence of Tyrosine-protein kinase JAK2 (O60674 whole entry): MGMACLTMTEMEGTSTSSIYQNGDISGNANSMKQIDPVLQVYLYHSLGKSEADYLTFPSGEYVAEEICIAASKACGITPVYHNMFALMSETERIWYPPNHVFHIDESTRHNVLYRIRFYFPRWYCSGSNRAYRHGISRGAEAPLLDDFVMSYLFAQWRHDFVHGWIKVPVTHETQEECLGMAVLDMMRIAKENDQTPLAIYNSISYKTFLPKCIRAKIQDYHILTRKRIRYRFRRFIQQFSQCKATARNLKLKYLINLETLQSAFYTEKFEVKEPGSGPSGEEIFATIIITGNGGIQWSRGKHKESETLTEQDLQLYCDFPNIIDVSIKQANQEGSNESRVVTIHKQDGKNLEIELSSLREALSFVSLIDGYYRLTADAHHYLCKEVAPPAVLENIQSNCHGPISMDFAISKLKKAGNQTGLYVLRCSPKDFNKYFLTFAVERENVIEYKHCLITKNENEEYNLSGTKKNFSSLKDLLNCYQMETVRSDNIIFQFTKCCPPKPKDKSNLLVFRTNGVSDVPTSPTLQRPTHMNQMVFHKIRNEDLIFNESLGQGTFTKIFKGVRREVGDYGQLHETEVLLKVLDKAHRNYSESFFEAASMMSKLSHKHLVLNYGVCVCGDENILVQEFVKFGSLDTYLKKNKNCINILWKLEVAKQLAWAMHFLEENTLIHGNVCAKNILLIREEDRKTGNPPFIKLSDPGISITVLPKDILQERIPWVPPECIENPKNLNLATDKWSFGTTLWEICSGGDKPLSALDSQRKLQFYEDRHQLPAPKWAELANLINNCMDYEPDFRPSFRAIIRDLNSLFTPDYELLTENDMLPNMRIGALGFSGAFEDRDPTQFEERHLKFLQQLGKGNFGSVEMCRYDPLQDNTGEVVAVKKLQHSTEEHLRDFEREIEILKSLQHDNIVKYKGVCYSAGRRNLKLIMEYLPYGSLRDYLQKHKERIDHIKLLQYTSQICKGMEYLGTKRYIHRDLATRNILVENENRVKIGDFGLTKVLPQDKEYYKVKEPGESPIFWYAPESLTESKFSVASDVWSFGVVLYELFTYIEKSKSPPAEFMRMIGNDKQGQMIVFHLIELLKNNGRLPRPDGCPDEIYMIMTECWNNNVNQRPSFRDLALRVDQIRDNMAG

SMILES	IC50 [1]	IC50 [2]	IC50 [3]
CC1CCC(C(=O)NCC#N)CN1N(C)c1ncnc2[nH]ccc12 (configuration not stated)	521 nM	1430 nM	362 nM
CN(c1ncnc2[nH]ccc12)N1CCCC(C(=O)N2CC(O)C2)C1 (configuration not stated)	155 nM	817 nM	518 nM
CN(c1ncnc2[nH]ccc12)N1CCCC(C(=O)NCC#N)C1 (configuration not stated)	1.6 nM	11.6 nM	8 nM
CN(c1ncnc2[nH]ccc12)N1CCC(C(=O)NCC(F)(F)F)C1 (configuration not stated)	1.9 nM	36 nM	29 nM
CN(c1ncnc2[nH]ccc12)N1CC[C@@H](C(=O)NCC(F)(F)F)C1	0.16 nM	8.5 nM	15 nM
CN(c1ncnc2[nH]ccc12)N1CCC[C@@H](C(=O)NCC(F)(F)F)C1	0.7 nM	13 nM	6.2 nM
COCNC(=O)C1CCCN(N(C)c2ncnc3[nH]ccc23)C1 (configuration not stated)	21.3 nM	148 nM	83.2 nM
CN(c1ncnc2[nH]ccc12)N1CCC(C(=O)NCC#N)CC1	12 nM	272 nM	287 nM
CN(c1ncnc2[nH]ccc12)N1CCCC(C)(C(=O)NCC#N)C1 (configuration not stated)	1860 nM	4800 nM	1580 nM
CN(c1ncnc2[nH]ccc12)N1CCCC(C(=O)NCC(F)(F)F)C1 (configuration not stated)	2.9 nM	33.2 nM	16.1 nM
CN(c1ncnc2[nH]ccc12)N1CCC(C(=O)NCC#N)C1 (configuration not stated)	3.3 nM	43 nM	25.1 nM
CN(c1ncnc2[nH]ccc12)N1CC[C@H](C(=O)NCC(F)(F)F)C1	18 nM	361 nM	13 nM
CN(c1ncnc2[nH]ccc12)N1CCC[C@@H](C(=O)NCC#N)C1	0.3 nM	3.6 nM	3.9 nM
CN(CC(F)(F)F)C(=O)C1CCCN(N(C)c2ncnc3[nH]ccc23)C1 (configuration not stated)	15.1 nM	165 nM	77.4 nM
CN(c1ncnc2[nH]ccc12)N1CCC(C(=O)NCC(F)(F)F)CC1	14 nM	316 nM	186 nM
CC1CCC(C(=O)NCC(F)(F)F)CN1N(C)c1ncnc2[nH]ccc12 (configuration not stated)	309 nM	2000 nM	339 nM
CN(c1ncnc2[nH]ccc12)N1CCCN(C(=O)CC(F)(F)F)CC1	10000 nM	10000 nM	10000 nM
CN(c1ncnc2[nH]ccc12)N1CCCC(C(=O)NCC(F)F)C1 (configuration not stated)	1.6 nM	16.1 nM	8.3 nM
CN(c1ncnc2[nH]ccc12)N1CCC(C)(C(=O)NCC(F)(F)F)C1 (configuration not stated)	5020 nM	10000 nM	5970 nM
CN(c1ncnc2[nH]ccc12)N1CCCC(C(=O)NCCC#N)C1 (configuration not stated)	35 nM		188 nM
CN(c1ncnc2[nH]ccc12)N1CCCC(N2CCCC2=O)C1 (configuration not stated)	1120 nM	3500 nM	349 nM
